Test systems include NCI-H23 lung; IGROV1 ovarian; SK-OV-3 ovarian; HCC-2998 colon; PC-3 prostate; OVCAR-8 ovarian; HS 578T breast; TK-10 renal; UACC-257 melanoma; MALME-3M melanoma.
What all share (experiment): growth of human tumour cells (NCI), 48 h

Values joined by “and” are separate entries in the source; they are usually repeats but may differ in a detail not shown here. Equal entries are not always repeated.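 Interpolation was linear, between the two tested concentrations surrounding the appropriate level; five concentrations were tested over 48 hours in 96-well plates. The concentration for 50% growth inhibition is given as GI50. Definition used: TGI = concentration required for complete inhibition of growth.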

Take `Cn1c(-c2ccccc2)c(/C=C/C2=[N+](C)c3ccccc3C2(C)C)c2ccccc21`: the GI50 with NCI-H23 lung is 0.784 µM; in the assay on IGROV1 ovarian it was 1.87 µM; with SK-OV-3 ovarian, 2.38 µM; in the assay on HCC-2998 colon, 0.365 µM; in the assay on PC-3 prostate it was 0.575 µM; in the assay with OVCAR-8 ovarian it was 0.84 µM. Also, the GI50 is 1.08 µM in the assay with HS 578T breast, 1.35 µM in the assay on TK-10 renal, 0.405 µM with UACC-257 melanoma and 0.68 µM with MALME-3M melanoma. The TGI in the assay with NCI-H23 lung came to 5.17 µM; in the assay with IGROV1 ovarian, 6.07 µM; in the assay with SK-OV-3 ovarian, 8.03 µM; with HCC-2998 colon it was 3.42 µM; with PC-3 prostate it was 9.16 µM; with OVCAR-8 ovarian, 8.95 µM. Moreover, the TGI in the assay on HS 578T breast came to 16.6 µM; in the assay with TK-10 renal, 11.5 µM; with UACC-257 melanoma, 2.53 µM; in the assay with MALME-3M melanoma, 3.1 µM.

For the molecule `C=C1SC(=Nc2ccccc2Cl)N(C(=O)c2sc3ccccc3c2Cl)C12CCCCC2`, the GI50 in the assay on NCI-H23 lung is 4.43 µM; in the assay with IGROV1 ovarian, 9.66 µM; in the assay with SK-OV-3 ovarian, 13.9 µM; in the assay on HCC-2998 colon, 7.27 µM; in the assay with PC-3 prostate it was 4.51 µM; in the assay with OVCAR-8 ovarian it was 6.62 µM. Further, the GI50 in the assay with HS 578T breast is 4.84 µM; in the assay with TK-10 renal, 15.2 µM; in the assay with UACC-257 melanoma, 23.6 µM; with MALME-3M melanoma, 29.2 µM. Moreover, the TGI in the assay on NCI-H23 lung, with IGROV1 ovarian, in the assay with SK-OV-3 ovarian, in the assay with HCC-2998 colon, in the assay on PC-3 prostate and with OVCAR-8 ovarian was above 100 µM each time. For the same molecule, the TGI in the assay on HS 578T breast, in the assay with TK-10 renal, in the assay with UACC-257 melanoma and in the assay on MALME-3M melanoma was above 100 µM in each case.

With `Cc1[nH]c(N)nc(=S)c1CCC(=O)O`, the TGI in the assay on NCI-H23 lung, in the assay with IGROV1 ovarian, with SK-OV-3 ovarian, in the assay on HCC-2998 colon, in the assay with PC-3 prostate and in the assay on OVCAR-8 ovarian was above 100 µM throughout. Moreover, the TGI with HS 578T breast, in the assay on TK-10 renal, in the assay on UACC-257 melanoma and with MALME-3M melanoma was above 100 µM in each case.

Regarding `CO[C@H]1C[C@](C)(O)Cc2cc3c(c(O)c21)C(=O)c1c(O)cc2c(c1C3=O)O[C@@H]1O[C@@]2(C)[C@H](O)[C@@H](N(C)C)[C@@H]1O`, the TGI in the assay with NCI-H23 lung was 2.03 µM and 6.54 µM; in the assay with IGROV1 ovarian, 9.16 µM and 18.7 µM; in the assay with SK-OV-3 ovarian, 2.45 µM and 3.67 µM; with HCC-2998 colon it was 3.04 µM and 11.9 µM; with PC-3 prostate it was 15.9 µM; in the assay with OVCAR-8 ovarian, 3.36 µM and 4.97 µM. Moreover, the TGI in the assay on HS 578T breast was 22.6 µM; in the assay on TK-10 renal, 6.49 µM and 21.5 µM; in the assay with UACC-257 melanoma, 7.55 µM and 31.6 µM; in the assay on MALME-3M melanoma, 3.44 µM and 13.3 µM. The GI50 in the assay on SK-OV-3 ovarian was 0.749 µM; in the assay with HCC-2998 colon, 1.48 µM; in the assay on OVCAR-8 ovarian, 1.07 µM; with TK-10 renal, 3.89 µM; with UACC-257 melanoma, 3.78 µM.

Turning to `O=C(c1ccco1)c1c(C(F)(F)F)n([O-])c2cc(C(F)(F)F)ccc2[n+]1=O`, the GI50 is 1.15 µM in the assay with NCI-H23 lung; 0.822 µM in the assay with IGROV1 ovarian; 1.65 µM in the assay with SK-OV-3 ovarian; 0.371 µM in the assay with HCC-2998 colon; 0.163 µM in the assay with PC-3 prostate; 0.688 µM in the assay on OVCAR-8 ovarian. The GI50 is 1.36 µM in the assay on HS 578T breast, 1.57 µM in the assay on TK-10 renal, 1.55 µM in the assay with UACC-257 melanoma and 1.49 µM with MALME-3M melanoma. In addition, the TGI in the assay on NCI-H23 lung was determined as 2.62 µM; with IGROV1 ovarian it was 2.52 µM; in the assay with SK-OV-3 ovarian, 3.13 µM; in the assay with HCC-2998 colon, 0.862 µM; in the assay with PC-3 prostate, 0.559 µM; with TK-10 renal it was 3.1 µM. For the same molecule, the TGI in the assay on UACC-257 melanoma stood at 3.27 µM; with MALME-3M melanoma, 3.43 µM.

In the case of `CC(C)c1cccc(O)c(=O)c1`, the GI50 in the assay on NCI-H23 lung was 35 µg/mL; in the assay on IGROV1 ovarian, 1.6 µg/mL; with HCC-2998 colon it was 1.63 µg/mL; in the assay on PC-3 prostate, 2.6 µg/mL; with OVCAR-8 ovarian it was 2 µg/mL; in the assay with HS 578T breast it was 1.98 µg/mL. For the same molecule, the GI50 is 17.3 µg/mL in the assay on TK-10 renal, 2.33 µg/mL in the assay with UACC-257 melanoma and 9.77 µg/mL with MALME-3M melanoma. The TGI with NCI-H23 lung was > 75 µg/mL and > 78.8 µM; in the assay with IGROV1 ovarian, > 75 µg/mL and > 100 µM; with SK-OV-3 ovarian, above 100 µM; in the assay with PC-3 prostate it was above 75 µg/mL; in the assay on HS 578T breast, 38.6 µg/mL; with TK-10 renal, > 75 µg/mL and > 100 µM. In addition, the TGI is 23 µg/mL and 46.6 µM in the assay on UACC-257 melanoma; 48.3 µg/mL and > 81.2 µM with MALME-3M melanoma.

As to `O=C(C#Cc1ccccc1)C1=Cc2ccccc2OC1`, the TGI with NCI-H23 lung worked out at 5.47 µM; with IGROV1 ovarian, 6.37 µM; in the assay with SK-OV-3 ovarian it was 30.9 µM; in the assay on HCC-2998 colon, 19.6 µM; in the assay with PC-3 prostate it was 22.2 µM; in the assay on OVCAR-8 ovarian, 5.85 µM. Moreover, the TGI in the assay with HS 578T breast turned out to be 23.8 µM; in the assay on TK-10 renal it was 3.58 µM; in the assay on UACC-257 melanoma it was 8.23 µM; in the assay on MALME-3M melanoma it was 13.2 µM.

With `O=CN1N=C(c2cccc(Nc3ccnc4cc(Cl)ccc34)c2)CC1c1ccccc1` (stereo not given), the GI50 in the assay with NCI-H23 lung is 0.551 µM; with IGROV1 ovarian it was 0.687 µM; in the assay with SK-OV-3 ovarian, 0.363 µM; in the assay with HCC-2998 colon, 1.03 µM; with PC-3 prostate it was 0.306 µM; with OVCAR-8 ovarian, 0.553 µM. The GI50 in the assay with HS 578T breast is 0.248 µM; in the assay with TK-10 renal, 0.345 µM; with UACC-257 melanoma, 0.301 µM; in the assay on MALME-3M melanoma, 0.373 µM. Also, the TGI was above 36.8 µM with NCI-H23 lung; above 100 µM in the assay with IGROV1 ovarian; 14.3 µM in the assay with SK-OV-3 ovarian; 5.57 µM with HCC-2998 colon; 42.7 µM in the assay with PC-3 prostate; 7.5 µM in the assay on OVCAR-8 ovarian. Besides, the TGI in the assay on HS 578T breast is 3.4 µM; in the assay with TK-10 renal, 16.4 µM; in the assay on UACC-257 melanoma it was 37.6 µM; in the assay on MALME-3M melanoma, above 100 µM.

`CCCCCCCC/C=C1\CCC(CN2CCOCC2)C1=O` (stereo not given): the TGI with NCI-H23 lung came out at 24.4 µM; in the assay on IGROV1 ovarian, 21 µM; in the assay on SK-OV-3 ovarian, 34.3 µM; with HCC-2998 colon, 26.2 µM; with PC-3 prostate, 23.7 µM; in the assay with OVCAR-8 ovarian, 13.8 µM. The TGI worked out at 50.6 µM with HS 578T breast, 7.42 µM with TK-10 renal, 21.7 µM in the assay with UACC-257 melanoma and 24.7 µM with MALME-3M melanoma.

(Values after PubChem BioAssay (NCI).)
